Assay results: US12030879B2, “Sulfonyl acetamides as NLRP3 inhibitors” (Inflazome Limited, priority 2018, dated 2024)
Counter-ions that a name gives are not always drawn.

The molecules below were run against T1, NLRP3 (Homo sapiens, UniProt Q96P20) (assay: THP-1 cells pyroptosis assay). Conditions: LPS 1 μg/ml, compound 3 hrs, nigericin 5 μM 1 hr, resazurin readout.
T1 construct: Seed THP-1 cells (25,000 cells/well) containing 1.0 μg/ml LPS in 40 μl of RPMI medium; host or cells: THP-1 cells
Format: cell-based
Procedure: THP-1 cells (ATCC #TIB-202) were grown in RPMI containing L-glutamine (Gibco #11835) supplemented with 1 mM sodium pyruvate (Sigma #S8636) and penicillin (100 units/ml)/streptomycin (0.1 mg/ml) (Sigma #P4333) in 10% Fetal Bovine Serum (FBS) (Sigma #F0804). The cells were routinely passaged and grown to confluency (10^6 cells/ml). On the day of the experiment, THP-1 cells were harvested and resuspended into RPMI medium (without FBS). The cells were then counted and viability (>90%) checked by Trypan blue (Sigma #T8154). Appropriate dilutions were made to give a concentration of 625,000 cells/ml. To this diluted cell solution was added LPS (Sigma #L4524) to give a 1 μg/ml Final Assay Concentration (FAC). 40 μl of the final preparation was aliquoted into each well of a 96-well plate. The plate thus prepared was used for compound screening.
The following method step-by-step assay was followed for compound screening. • 1. Seed THP-1 cells (25,000 cells/well) containing 1.0 μg/ml LPS in 40 μl of RPMI medium (without FBS) in 96-well, black walled, clear bottom cell culture plates coated with poly-D-lysine (VWR #734-0317) • 2. Add 5 μl compound (8 points half-log dilution, with 10 μM top dose) or vehicle (DMSO 0.1% FAC) to the appropriate wells • 3. Incubate for 3 hrs at 37° C., 5% CO2 • 4. Add 5 μl nigericin (Sigma #N7143) (FAC 5 μM) to all wells • 5. Incubate for 1 hr at 37° C., 5% CO2 • 6. At the end of the incubation period, spin plates at 300×g for 3 mins and remove supernatant • 7. Then add 50 μl of resazurin (Sigma #R7017)(FAC 100 μM resazurin in RPMI medium without FBS) and incubate plates for a further 1-2 hrs at 37° C. and 5% CO2 • 8. Plates were read in an Envision reader at Ex 560 nm and Em 590 nm • 9. IC50 data is fitted to a non-linear regression equation (log inhibitor vs response-variable slope 4-parameters) 96-well Plate Map

T1 sequence (Q96P20 whole entry): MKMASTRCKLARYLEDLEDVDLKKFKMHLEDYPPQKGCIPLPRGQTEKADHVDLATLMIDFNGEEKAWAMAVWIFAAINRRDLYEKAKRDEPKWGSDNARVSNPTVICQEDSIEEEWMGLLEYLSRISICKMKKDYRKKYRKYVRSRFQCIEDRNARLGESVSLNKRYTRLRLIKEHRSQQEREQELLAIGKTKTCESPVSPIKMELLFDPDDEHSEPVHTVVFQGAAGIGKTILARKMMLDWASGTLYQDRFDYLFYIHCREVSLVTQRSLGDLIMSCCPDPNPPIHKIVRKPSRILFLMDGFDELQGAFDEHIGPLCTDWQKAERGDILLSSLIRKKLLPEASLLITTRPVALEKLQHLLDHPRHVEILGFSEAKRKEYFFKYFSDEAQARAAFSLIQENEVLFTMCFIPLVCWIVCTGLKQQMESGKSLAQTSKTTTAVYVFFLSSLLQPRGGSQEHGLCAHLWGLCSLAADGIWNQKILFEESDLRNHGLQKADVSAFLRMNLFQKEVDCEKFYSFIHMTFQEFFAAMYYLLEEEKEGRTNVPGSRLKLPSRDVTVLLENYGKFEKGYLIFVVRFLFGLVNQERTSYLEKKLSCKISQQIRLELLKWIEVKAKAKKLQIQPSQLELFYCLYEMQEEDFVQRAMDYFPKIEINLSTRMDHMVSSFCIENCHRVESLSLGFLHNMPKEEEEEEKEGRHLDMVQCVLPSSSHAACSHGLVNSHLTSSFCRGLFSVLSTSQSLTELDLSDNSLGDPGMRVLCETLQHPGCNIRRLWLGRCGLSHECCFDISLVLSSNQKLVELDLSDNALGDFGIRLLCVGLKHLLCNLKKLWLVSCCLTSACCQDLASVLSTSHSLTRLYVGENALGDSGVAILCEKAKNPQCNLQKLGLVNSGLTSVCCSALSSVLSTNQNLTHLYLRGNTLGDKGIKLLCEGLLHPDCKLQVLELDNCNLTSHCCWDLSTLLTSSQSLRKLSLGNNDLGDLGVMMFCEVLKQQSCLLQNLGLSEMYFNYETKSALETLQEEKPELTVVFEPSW

IC50 [µM] | SMILES
≤ 10 | COc1cc(-c2cc(F)cc(C(C)C)c2CC(=O)NS(=O)(=O)c2ccc(=O)n(C)c2)ccn1 [Example 1, 2-(4-Fluoro-2-isopropyl-6-(2-methoxypyridin-4-yl)phenyl)-N-((1-methyl-6-oxo-,6-dihydropyridin-3-yl)sulfonyl)acetamide, potassium salt]
≤ 1 | COc1cc(-c2cc(F)cc(C(C)C)c2CC(=O)NS(=O)(=O)c2cn(C)c(=O)n(C)c2=O)ccn1 [Example 3, N-((1,3-Dimethyl-2,4-dioxo-1,2,3,4-tetrahydropyrimidin-5-yl)sulfonyl)-2-(4-fluoro-2-isopropyl-6-(2-methoxypyridin-4-yl)phenyl)acetamide]
≤ 1 | COc1cc(-c2cc(F)cc(C(C)C)c2CC(=O)NS(=O)(=O)c2ccc(Cl)cc2F)ccn1 [Example 4]
≤ 5 | COc1cc(-c2cc(F)cc(C(C)C)c2CC(=O)NS(=O)(=O)c2ccccc2Cl)ccn1 [Example 7]
≤ 10 | COc1cc(-c2cc(F)cc(C(C)C)c2CC(=O)NS(=O)(=O)c2sccc2C(C)(C)O)ccn1 [Example 8]
≤ 5 | CC(C)c1cc(F)cc(-c2ccc(Cl)nc2)c1CC(=O)NS(=O)(=O)c1cc(C(C)(C)O)cs1 [Example 10]
≤ 1 | COc1cc(-c2cc(F)cc(C(C)C)c2CC(=O)NS(=O)(=O)c2ccc(Cl)c(Cl)c2)ccn1 [Example 11]
≤ 5 | CC(C)c1cc(F)cc(-c2ccncc2)c1CC(=O)NS(=O)(=O)c1ccc(Cl)cc1 [Example 16]
≤ 10 | COc1cc(-c2cc(F)cc(C(C)C)c2CC(=O)NS(=O)(=O)c2ccc(B(O)O)cc2)ccn1 [Example 18]
≤ 10 | CC(C)n1ccc(S(=O)(=O)NC(=O)Cc2c(-c3ccnc(C#N)c3)ccc3c2CCC3)n1 [Example 21, 2-(5-(2-Cyanopyridin-4-yl)-2,3-dihydro-H-inden-4-yl)-N-((1-isopropyl-1H-pyrazol-3-yl)sulfonyl)acetamide]
≤ 5 | COc1cc(-c2cc(F)cc(C(C)C)c2CC(=O)NS(=O)(=O)c2ccn(C(C)C)n2)ccn1 [Example 23, 2-(4-Fluoro-2-isopropyl-6-(2-methoxypyridin-4-yl)phenyl)-N-((1-isopropyl-1H-pyrazol-3-yl)sulfonyl)acetamide, potassium salt]
≤ 0.5 | CC(C)c1cc(F)cc(-c2cccnc2)c1CC(=O)NS(=O)(=O)c1cc(C(C)(C)O)cs1 [Example 25, 2-(4-Fluoro-2-isopropyl-6-(pyridin-3-yl)phenyl)-N-((4-(2-hydroxypropan-2-yl)thiophen-2-yl)sulfonyl)acetamide]
≤ 0.5 | COc1cc(-c2cc(F)cc(C(C)C)c2CC(=O)NS(=O)(=O)c2cc(C(C)(C)O)cs2)ccn1 [Example 26, 2-(4-Fluoro-2-isopropyl-6-(2-methoxypyridin-4-yl)phenyl)-N-((4-(2-hydroxypropan-2-yl)thiophen-2-yl)sulfonyl)acetamide]
≤ 5 | CCOC(=O)c1cc(S(=O)(=O)NC(=O)Cc2c(-c3ccnc(OC)c3)cc(F)cc2C(C)C)nn1C [Example 28, Ethyl 3-(N-(2-(4-fluoro-2-isopropyl-6-(2-methoxypyridin-4-yl)phenyl)acetyl)sulfamoyl)-1-methyl-1H-pyrazole-5-carboxylate]
≤ 5 | COc1cc(-c2cc(F)cc(C(C)C)c2CC(=O)NS(=O)(=O)c2cccc(C#N)c2)ccn1 [Example 30, N-((3-Cyanophenyl)sulfonyl)-2-(4-fluoro-2-isopropyl-6-(2-methoxypyridin-4-yl)phenyl)acetamide]
≤ 0.5 | COc1cc(-c2cc(F)cc(C(C)C)c2CC(=O)NS(=O)(=O)c2ccc(C(C)(C)O)cc2C)ccn1 [Example 33, 2-(4-Fluoro-2-isopropyl-6-(2-methoxypyridin-4-yl)phenyl)-N-((4-(2-hydroxypropan-2-yl)-2-methylphenyl)sulfonyl)acetamide]
≤ 5 | CC(C)c1cc(F)cc(-c2ccncc2)c1CC(=O)NS(=O)(=O)c1ccc(CN(C)C)cc1 [Example 36, N-((4-((Dimethylamino)methyl)phenyl)sulfonyl)-2-(4-fluoro-2-isopropyl-6-(pyridin-4-yl)phenyl)acetamide]

Continued, molecule first:

SMILES | IC50 [µM]
COc1cc(-c2cc(F)cc(C(C)C)c2CC(=O)NS(=O)(=O)c2ccc(=O)n(C(C)C)c2)ccn1 [Example 2, 2-(4-Fluoro-2-isopropyl-6-(2-methoxypyridin-4-yl)phenyl)-N-((1-isopropyl-6-oxo-,6-dihydropyridin-3-yl)sulfonyl)acetamide, potassium salt] | ≤ 5
COc1cc(-c2cc(F)cc(C(C)C)c2CC(=O)NS(=O)(=O)c2cccc(Cl)c2)ccn1 [Example 5] | ≤ 1
COc1cc(-c2cc(F)cc(C(C)C)c2CC(=O)NS(=O)(=O)c2cccc(Cl)c2C)ccn1 [Example 6] | ≤ 10
COC(=O)c1ccc(S(=O)(=O)NC(=O)Cc2c(-c3ccnc(OC)c3)cc(F)cc2C(C)C)cc1Cl [Example 9] | ≤ 5
COc1cc(-c2cc(F)cc(C(C)C)c2CC(=O)NS(=O)(=O)c2ccc(Cl)cc2OC)ccn1 [Example 12] | ≤ 1
COc1cc(-c2cc(F)cc(C(C)C)c2CC(=O)NS(=O)(=O)c2ccc(Cl)cc2Cl)ccn1 [Example 13] | ≤ 1
COc1cc(-c2cc(F)cc(C(C)C)c2CC(=O)NS(=O)(=O)c2ccc(N(C)C)cc2C)ccn1 [Example 14] | ≤ 0.5
COc1cc(-c2cc(F)cc(C(C)C)c2CC(=O)NS(=O)(=O)c2ccc(C(=O)N(C)C)cc2C)ccn1 [Example 15] | ≤ 5
CC(C)c1cc(F)cc(-c2cccnc2)c1CC(=O)NS(=O)(=O)c1ccc(Cl)cc1 [Example 17] | ≤ 5
COc1cc(-c2cc(F)cc(C(C)C)c2CC(=O)NS(=O)(=O)c2ccc(Br)cc2)ccn1 [Example 19] | ≤ 1
COc1cc(-c2ccc3c(c2CC(=O)NS(=O)(=O)c2cc(C(C)(C)O)cs2)CCC3)ccn1 [Example 20, N-((4-(2-Hydroxypropan-2-yl)thiophen-2-yl)sulfonyl)-2-(5-(2-methoxypyridin-4-yl)-2,3-dihydro-1H-inden-4-yl)acetamide] | ≤ 1
CC(C)(O)c1csc(S(=O)(=O)NC(=O)Cc2c(-c3ccnc(C#N)c3)ccc3c2CCC3)c1 [Example 22, 2-(5-(2-Cyanopyridin-4-yl)-2,3-dihydro-1H-inden-4-yl)-N-((4-(2-hydroxypropan-2-yl)thiophen-2-yl)sulfonyl)acetamide] | ≤ 5
CC(C)c1cc(F)cc(-c2cccnc2)c1CC(=O)NS(=O)(=O)c1ccn(C(C)C)n1 [Example 24, 2-(4-Fluoro-2-isopropyl-6-(pyridin-3-yl)phenyl)-N-((1-isopropyl-1H-pyrazol-3-yl)sulfonyl)acetamide, potassium salt] | ≤ 10
CC(C)c1cc(F)cc(-c2ccncc2)c1CC(=O)NS(=O)(=O)c1cc(C(C)(C)O)cs1 [Example 27, 2-(4-Fluoro-2-isopropyl-6-(pyridin-4-yl)phenyl)-N-((4-(2-hydroxypropan-2-yl)thiophen-2-yl)sulfonyl)acetamide, potassium salt] | ≤ 0.5
COc1cc(-c2cc(F)cc(C(C)C)c2CC(=O)NS(=O)(=O)c2ccc3c(c2)C(C)(C)OC3=O)ccn1 [Example 29, N-((3,3-Dimethyl-1-oxo-1,3-dihydroisobenzofuran-5-yl)sulfonyl)-2-(4-fluoro-2-isopropyl-6-(2-methoxypyridin-4-yl)phenyl) acetamide] | ≤ 5
COc1cc(-c2cc(F)cc(C(C)C)c2CC(=O)NS(=O)(=O)c2ccc(CN(C)C)cc2)ccn1 [Example 31, N-((4-((Dimethylamino)methyl)phenyl)sulfonyl)-2-(4-fluoro-2-isopropyl-6-(2-methoxypyridin-4-yl)phenyl)acetamide, potassium salt] | ≤ 5
COc1cc(-c2cc(F)cc(C(C)C)c2CC(=O)NS(=O)(=O)c2cccc(CC#N)c2)ccn1 [Example 32, N-((3-(Cyanomethyl)phenyl)sulfonyl)-2-(4-fluoro-2-isopropyl-6-(2-methoxypyridin-4-yl)phenyl)acetamide] | ≤ 1
COc1cc(-c2cc(F)cc(C(C)C)c2CC(=O)NS(=O)(=O)c2ccc(F)c(C#N)c2)ccn1 [Example 34, N-((3-Cyano-4-fluorophenyl)sulfonyl)-2-(4-fluoro-2-isopropyl-6-(2-methoxypyridin-4-yl)phenyl)acetamide] | ≤ 10
COc1cc(-c2cc(F)cc(C(C)C)c2CC(=O)NS(=O)(=O)c2cc(C#N)ccc2C)ccn1 [Example 35, N-((5-Cyano-2-methylphenyl)sulfonyl)-2-(4-fluoro-2-isopropyl-6-(2-methoxypyridin-4-yl)phenyl)acetamide] | ≤ 10
